We go through 11 molecules from patent US20020042393A1, “Excipient” (priority 1998, published 2002).

The nature of data set [1]: Proportion of particles of 75 μm or more (Air Jet Sieve). Type of data set: physicochemical. To be noted: excipient powder. The method, then:
Five grams of trehalose was weighed onto a screen having a screen opening of 75 μm, and sifted with Air Jet Sieve (Model 200LS, mfd. by ALPINE) for 5 minutes, and the weight percentage of the weight of particles remaining on the screen based on the total weight of particles was calculated as the proportion of particles of 75 μm or more.

The nature of data set [2]: Angle of repose (Sugiwara's instrument). In kind it is physicochemical. Particulars: excipient powder. The text has this:
Measured by means of a Sugiwara's instrument for measuring angle of repose (Yakuzaigaku 27, p. 260, 1965).

Data set [3] can be described thus: Apparent specific volume. Type of data set: physicochemical. Particulars: excipient powder. The text has this:
The whole of 10 g of trehalose powder was gently poured into a 100-ml measuring cylinder without making an impact (in this case, a cylinder having an outside diameter smaller than the inside diameter of the measuring cylinder was placed in the measuring cylinder, and it was slowly lifted after pouring the trehalose), and the apparent specific volume was expressed as a value obtained by dividing the read volume by the weight of the trehalose.

A short description of data set [4]: Change in whiteness of excipient mixed with drug at 40° C. and 75% RH (reactivity). In kind it is physicochemical. On the procedure:
(§1) For powder of trehalose or a pharmaceutical composition containing trehalose, values of L, a and b were measured with a color analyzer (TC-1800MKII, mfd. by Tokyo Denshoku Co., Ltd.), and the whiteness of the trehalose or pharmaceutical composition was calculated by the following equation: […]
One gram of each of the trehaloses obtained in Example 1 and 1 g of isoniazid were mixed and then allowed to stand in an atmosphere of 40° C. and 75% RH, and the change in whiteness of the trehalose was observed. On the other hand, 1 g of each of the trehaloses obtained in Example 1 and 1 g of aminophyline were mixed and then allowed to stand in an atmosphere of 40° C. and 75% RH, and the change in whiteness of the trehalose was observed.
One gram of 100-mesh lactose (available from De Melkindustrie Veghel bv) or 1 g of Mannit S (available from Tohwa Kasei Co., Ltd.) and 1 g of aminophyline were mixed and then allowed to stand in an atmosphere of 40° C. and 75% RH, and the change in whiteness of the lactose or Mannit S was observed.
As a starting material. […]

Data set [5] is described as follows: Average particle size (sieving, 50% cumulative weight). Particulars: excipient powder. Type of data set: physicochemical. The method, then:
Five grams of trehalose was sifted through screens having screen openings of 500 μm, 300 μm and 250 μm, respectively, and then sifted with Air Jet Sieve by using screens having screen openings of 150 μm, 75 μm, 45 μm, 38 μm and 32 μm, respectively. The oversize particle weight percentage [%] was calculated for each screen, and the average particle size is expressed as a particle size corresponding to a cumulative weight percentage of 50%.

Data set [6] can be described thus: Whiteness of powder (color analyzer). Type of data set: physicochemical. To be noted: excipient powder. The method, then:
as §1

A short description of data set [7]: Water content (Karl Fisher) of tablets before and after storage. In kind it is physicochemical. Particulars: tablets compressed at 500 kg/cm^2; 0 day; listed as F. The method, then:
Determined as a value obtained by measuring about 0.1 g of trehalose and determining its water content by the Karl Fisher method.
One hundred grams of commercial “Trehaose” (available from Hayashibara Biochemical Laboratories, Inc.) was dissolved in water to a concentration of about 35 wt %, and the resulting solution was concentrated under reduced pressure with heating at 60° C. so as to have a concentration of about 75 wt %, and allowed to stand at room temperature to precipitate crystals, which were washed with 50 ml of water. Glucose was removed by carrying out the above purification procedure once or twice, to increase the trehalose purity. Trehalose A was obtained by carrying out the purification procedure twice to obtain crystals, drying the crystals, grinding the dried crystals with a bantam mill (number of revolutions 15,000 rpm, feed rate 5 kg/hr, and screen opening 2.0 mmφ), and then sifting the ground crystals through a […]. Trehalose B was obtained by carrying out the purification procedure once to obtain crystals, drying the crystals, grinding the dried crystals with a bantam mill (number of revolutions 10,000 rpm, feed rate 5 kg/hr, and screen opening 2.00 mmφ), and then sifting the ground crystals through a 350-μm screen. Trehalose C was obtained by carrying out the purification procedure once to obtain crystals, drying the crystals, grinding the dried crystals with a bantam mill (number of revolutions 8,000 rpm, feed rate 5 kg/hr, and screen opening 2.0 mmφ), and then sifting the ground crystals through a 350-μm screen. […] Each of trehaloses A to C was compressed into tablets at a compression pressure of 500 kg/cm^2, and the tablet hardness immediately after the compression and the tablet hardness after standing for 3 days in an atmosphere of 40° C. and 75% RH after the compression were compared.
“Trehaose” (available from Hayashibara Bioscience Laboratories Co., Ltd.) was purified once by the method described in Example 1 to obtain crystals, which were dried, ground with a bantam mill (number of revolutions 12,000 rpm, feed rate 5 kg/hr, and screen opening 2.0 mmφ) and then dried at 105° C. for 4 hours to obtain trehalose anhydrous crystals. These crystals were compressed into tablets at a compression pressure of 500 kg/cm^2, and the tablet hardnesses of the tablets were compared in the same manner as in Example 1.

The nature of data set [8]: Tablet hardness (Schleuniger hardness meter). Type of data set: physicochemical. To be noted: for Tablet hardness at a compression pressure of 1000 kg/cm^2: phenacetin granules.
A short description of data set [9]: Wet granulation of phenacetin mixture with HPC binder solution: granule size and yield.
Where [10] appears, read: 1 g excipient + 1 g aminophyline, 0 day.
The mark [11] stands for this setting: 1 g excipient + 1 g aminophyline, 40° C. and 75% RH, 5 days.

On to `OC[C@@H](O)[C@@H](O)[C@H](O)[C@H](O)CO` [Mannit S, reference compound], for which the “Proportion of particles of 75 μm or more” value in data set [1] (listed as Mannit 5) is given as 68%. In [2] (listed as Mannit 5), this molecule came in with an Angle of repose of 53 °. Also, the Apparent specific volume in [3] (listed as Mannit 5) was found to be 1.7 cm^3/g. Moreover, the Whiteness is listed as 100% in data set [4] (setting [10]); 93% in data set [4] (1 g excipient + 1 g aminophyline, 40° C. and 75% RH, 1 month); 98% in [4] (setting [11]). The molecule also came in with an Average particle size in [5] (listed as Mannit 5) of 102 μm.
As for `OC[C@H]1O[C@H](O[C@H]2O[C@H](CO)[C@@H](O)[C@H](O)[C@H]2O)[C@H](O)[C@@H](O)[C@@H]1O` [Trehalose I, trehalose], the “Proportion of particles of 75 μm or more” value in [1] is 95%. Moreover, the Angle of repose in data set [2] was determined as 30 °. The Apparent specific volume in data set [3] is 1.4 cm^3/g. Besides, the Average particle size in [5] stood at 280 μm. Besides, in [6], the Whiteness is recorded as 96%.
On to `OC[C@H]1O[C@H](O[C@H]2O[C@H](CO)[C@@H](O)[C@H](O)[C@H]2O)[C@H](O)[C@@H](O)[C@@H]1O` [Trehalose N, trehalose], for which, in data set [1] (listed as N), the “Proportion of particles of 75 μm or more” value is reported as 45%. Moreover, in [3] (listed as N), the Apparent specific volume is 2.2 mL/g. Moreover, the Average particle size in data set [5] (listed as N) worked out at 70 μm. In [6] (listed as N), this molecule registered a Whiteness of 88%.
In the case of `OC[C@H]1O[C@@H](O[C@H]2[C@H](O)[C@@H](O)C(O)O[C@@H]2CO)[C@H](O)[C@@H](O)[C@H]1O` (some centres unmarked) [100-Mesh lactose, lactose, reference compound], the “Proportion of particles of 75 μm or more” value in [1] was found to be 76%. In data set [2], this molecule returned an Angle of repose of 43 °. In addition, in [3], the Apparent specific volume is 1.5 cm^3/g. The Whiteness in data set [4] (setting [10]) came out at 99%; in data set [4] (setting [11]), 30%. Further, the Average particle size in [5] stood at 104 μm.
Turning to `OC[C@H]1O[C@H](O[C@H]2O[C@H](CO)[C@@H](O)[C@H](O)[C@H]2O)[C@H](O)[C@@H](O)[C@@H]1O` [Trehalose L, trehalose], in data set [1] (listed as L), the “Proportion of particles of 75 μm or more” value is 25%. Besides, the Apparent specific volume in [3] (listed as L) is 2.5 mL/g. Also, the Average particle size in data set [5] (listed as L) was 45 μm. The same molecule yielded a Whiteness in data set [6] (listed as L) of 95%.
Regarding `OC[C@H]1O[C@H](O[C@H]2O[C@H](CO)[C@@H](O)[C@H](O)[C@H]2O)[C@H](O)[C@@H](O)[C@@H]1O` [Trehalose M, trehalose], in data set [1] (listed as M), the “Proportion of particles of 75 μm or more” value turned out to be 1%. Also, the Apparent specific volume in data set [3] (listed as M) worked out at 3.8 mL/g. Further, in data set [5] (listed as M), the Average particle size stood at 8 μm. The molecule further had a Whiteness in data set [6] (listed as M) of 97%.
As for `OC[C@H]1O[C@H](O[C@H]2O[C@H](CO)[C@@H](O)[C@H](O)[C@H]2O)[C@H](O)[C@@H](O)[C@@H]1O` [Trehalose F, trehalose], the “Proportion of particles of 75 μm or more” value in data set [1] (listed as F) is recorded as 28%. Moreover, the Water content in data set [7] turned out to be 0.5%. Also, in data set [2] (listed as F), the Angle of repose is given as 45 °. Besides, the Tablet hardness in data set [8] (tablets compressed at 500 kg/cm^2, 0 day (immediately after compression), listed as F) turned out to be 4.5 kgf. In addition, the Apparent specific volume in data set [3] (listed as F) turned out to be 2.3 cm^3/g. For the same molecule, the Average particle size in [5] (listed as F) is given as 49 μm. Besides, the Whiteness in data set [6] (listed as F) is on record as 94%.
Regarding `OC[C@H]1O[C@H](O[C@H]2O[C@H](CO)[C@@H](O)[C@H](O)[C@H]2O)[C@H](O)[C@@H](O)[C@@H]1O` [Trehalose E, trehalose], the “Proportion of particles of 75 μm or more” value in [1] (listed as E) is 3%. Further, the figures for the Angle of repose in data set [2] (listed as E) and in [2] (listed as trehalose E) were 55 ° and “more than 50 °”, respectively. Besides, in data set [3] (listed as E), the Apparent specific volume worked out at 3.7 cm^3/g. The molecule also showed an Average particle size in data set [5] (listed as E) of 25 μm. Moreover, the Whiteness in data set [6] (listed as E) turned out to be 96%.
Turning to `OC[C@H]1O[C@H](O[C@H]2O[C@H](CO)[C@@H](O)[C@H](O)[C@H]2O)[C@H](O)[C@@H](O)[C@@H]1O` [Trehalose G, trehalose], the “Proportion of particles of 75 μm or more” value in data set [1] (listed as G) came out at 13%. The molecule further showed an Angle of repose in data set [2] (listed as G) of 49 °. In addition, the Apparent specific volume in [3] (listed as G) was found to be 3.1 cm^3/g. The Whiteness is 94% in [4] (same manner as in Example 2 (drug not stated), 0 day); 87% in [4] (same manner as in Example 2 (drug not stated), 40° C. and 75% RH, 1 month, listed as G); “less than 90%” in data set [4] (same manner as in Example 2 (drug not stated), 40° C. and 75% RH, 1 month, listed as trehalose G); 94% in [6] (listed as G). In [5] (listed as G), this molecule showed an Average particle size of 31 μm.
Take `OC[C@H]1O[C@H](O[C@H]2O[C@H](CO)[C@@H](O)[C@H](O)[C@H]2O)[C@H](O)[C@@H](O)[C@@H]1O` [Trehalose D, trehalose]: the “Proportion of particles of 75 μm or more” value in [1] (listed as D) is 1%. The Angle of repose in data set [2] (listed as D) and in [2] (listed as trehalose D) was 65 ° throughout. Moreover, the “Tablet hardness at a compression pressure of 1000 kg/cm^2” value came out at 4.5 kgf in data set [8] (binding solution 100 g), 4.1 kgf in data set [8] (binding solution 120 g) and 3.0 kgf in [8] (binding solution 160 g). In addition, the Apparent specific volume in data set [3] (listed as D) turned out to be 4.5 cm^3/g. This molecule also registered an Average particle size in data set [5] (listed as D) of 12 μm. Besides, the “Average particle size of granules” value is 80 μm in data set [9] (phenacetin 50/excipient 30/corn starch 10/microcrystalline cellulose 10, binding solution 100 g); 121 μm in data set [9] (phenacetin granules, binding solution 120 g); 205 μm in data set [9] (phenacetin granules, binding solution 160 g). The molecule further came in with a Whiteness in [6] (listed as D) of 96%.
Consider `OC[C@H]1O[C@H](O[C@H]2O[C@H](CO)[C@@H](O)[C@H](O)[C@H]2O)[C@H](O)[C@@H](O)[C@@H]1O` [Trehalose H, trehalose], for which, in data set [1], the “Proportion of particles of 75 μm or more” value came out at 91%. The molecule further gave an Angle of repose in data set [2] of 37 °. In addition, the Apparent specific volume in data set [3] stood at 1.5 cm^3/g. For the same molecule, the Average particle size in [5] stood at 180 μm. In data set [6], this molecule displayed a Whiteness of 98%.
